From patent publication US6900239B2, “Tumor chemopotentiation using isocoumarin derivatives” (ILWZ ILEX Products, Inc., priority 2000, dated 2005)

Key:
MKN28 = experiment: Cell growth (WST-1) in the presence of NM-3; assay type: cell-based; settings: Homo sapiens, MKN-28, 72 h; 3 days culture; value somewhat low due to the influence of DMSO
[1] = test system: Human umbilical vein endothelial cells (HUVEC); experiment: HUVEC colony formation with a constant amount of gamma radiation; assay type: cell-based
Procedure: Human umbilical vein endothelial cells (HUVEC) were exposed to a constant amount of gamma radiation in the presence or absence of various concentrations of NM-3 in the culture medium. The numbers of HUVEC colonies that formed following the different treatments were recorded and normalized to the number of colonies formed under control (no NM-3) conditions and the results are shown in FIG. 1. […] For comparison, HUVEC cells were treated with either angiostatin or endostatin, two additional anti-angiogenic proteins.

K562 (leukemia cells) = experiment: Cell growth (WST-1) in the presence of NM-3; assay type: cell-based; settings: Homo sapiens, K562, 72 h; 3 days culture with NM-3
Procedure: (§1) To determine the extent to which NM-3 [2-(8-hydroxy-6-methoxy-1-oxo-1H-2-benzopyran-3-yl) propionic acid] inhibited the proliferation of, or was cytotoxic toward, human tumor cells and normal mouse cells, a variety of cell lines were grown in the presence of NM-3. The human cell lines used were K562 (leukemia cells), HT29 (colon tumor cells) HT1080 (reticulum blast sarcoma cells), and MCF7 (breast tumor cells). The mouse cells used were NIH3T3 cells (fibroblasts). All cell lines were cultured in 96-well plates to a density of 2-5×10^3 cells/well. Culture medium (RPMI 1640 plus 10% FBS) alone or containing NM-3 at one of several concentrations tested was then added to the cultures which were allowed to grow for an additional 3 days. To assess cell growth, 10 μl of WST-1 reagent (a chromogenic substrate for living cells) was added to each well and incubation continued for 3 hrs at 37° C. Absorbance at 450 nm was then determined using a plate reader.

[2] = test system: MCF7 (breast tumor cells); experiment: Cell growth (WST-1) in the presence of NM-3; assay type: cell-based; settings: Homo sapiens, MCF7, 72 h; 3 days culture with NM-3
Procedure: as §1

[3] = test system: NIH3T3 cells (fibroblasts); experiment: Cell growth (WST-1) in the presence of NM-3; assay type: cell-based; settings: Mus musculus, NIH3T3, 72 h; 3 days culture with NM-3
Procedure: as §1

HT29 (colon tumor cells) = experiment: Cell growth (WST-1) in the presence of NM-3; assay type: cell-based; settings: Homo sapiens, HT-29, 72 h; 3 days culture with NM-3
Procedure: as §1

[4] = test system: HT1080 (reticulum blast sarcoma cells); experiment: Cell growth (WST-1) in the presence of NM-3; assay type: cell-based; settings: Homo sapiens, HT-1080, 72 h; 3 days culture with NM-3
Procedure: as §1

[5] = test system: Lewis Lung carcinoma (LLC) tumors; experiment: Radiation sensitivity of Lewis Lung carcinoma in vivo; design: species or system C57BL/6 female mice
Procedure: To determine whether NM-3 treatment increases the radiation sensitivity of tumors in vivo, Lewis Lung carcinoma (LLC) tumors were established in C57BL/6 female mice (Frederick Cancer Research Institute) prior to NM-3 and radiation treatment. LLC cells (1×10^6 cells) were injected in the right hind limb of the mice and tumors were allowed to grow a volume of 250-350 mm^3. Tumor volumes were determined by direct measurements with calipers calculated by the formula: V=length×width×depth/2. Mice were then divided into groups and treated with NM-3 (100 mg/kg total) or PBS for two days before beginning radiation therapy. Animals then received NM-3 (25 mg/kg/day, i.p.) or PBS approximately four hours prior to radiation treatment. Tumors were irradiated using a GE Maxitron X-ray generator operating at 150 kV, 30 mA, using a 1 mm aluminum filter at a dose rate of 188 cGy/minute. Mice were shielded with lead except for the tumor-bearing area in the hind limb. Treatments and tumor measurements continued for a period of 17 days (see FIG. 4). […] Whereas control tumors reached 8 initial tumor volumes (Vo) after 8 days, X-ray treated tumors required 16 days to grow to this size. […] For comparison, data are plotted with two additional anti-angiogenic drugs, antiostatin and endostatin (see FIGS. 3B and 3C).

[6] = test system: MM1.S human multiple myeloma cells; experiment: Apoptosis by annexin V-FITC and PI staining; assay type: cell-based
Procedure: Apoptosis was determined by staining cells with annexin V-FITC and propidium iodide (PI). Cells were treated with DEX in the presence or absence of NM-3. NM-3 was added 2 hours before the addition of DEX. After 24 hours of DEX exposure, cells were washed twice with cold PBS, resuspended in binding buffer (10 mM HEPES/NaOH (pH 7.4), 140 mM NaCl, 2.5 mM CaCl2), and then stained with annexin V-FITC (Clontech Laboratories) and PI (Boehringer-Manheim). Apoptosis was analyzed by using a flow cytometer (EPICS XL-MCL, Coulter Corp). The cultured cells were also subjected to cell cycle analysis. Briefly, cells were washed twice with PBS and fixed with 70% ethanol. Cells were then washed with 0.5 ml PBS and 1.0 ml phosphate-citric acid buffer (0.2 M Na2HPO4 and 0.1 M citric acid (pH 7.8)), treated with 200 μg/ml RNase for 15 min at 37° C., and stained with 50 μg/ml PI for 30 min at room temperature in the dark. Cells were filtered through 35-μm diameter mesh to remove clumps. Nuclear staining was analyzed by a flow cytometer. Cells with fractional DNA content located on DNA frequency histograms to the left of the G1 peak (sub-G1 cells) were identified as apoptotic cells.

B16-BL6 melanoma cells = experiment: Experimental tumor metastasis (lung colonies); assay type: in vivo, BDF1 mice; settings: for Inhibition (%): days 1~13; for Number of lung metastases (Mean ± S.D.): days 1~13, counted day 14
Source text: To determine the antitumor effect of NM-3 on metastatic tumor growth, B16-BL6 melanoma cells (2×10^4 cells per mouse) were transplanted into BDF1 mice (female, 5 weeks old) via the tail vein. NM-3 was continuously administered via the oral route for 13 days following transplantation of the tumor cells. On day 14, the lungs were excised and fixed, and the metastatic colony numbers were counted.

## COc1cc(O)c2c(=O)oc(C(C)C(=O)O)cc2c1 (stereo not drawn) [NM-3, 2-(8-hydroxy-6-methoxy-1-oxo-1H-2-benzopyran-3-yl) propionic acid]
MKN28
  IC50: 175 µg/mL
[1]
  ED50, decrease of HUVEC colony formation: approximately 1 μg/ml
K562 (leukemia cells)
  IC50: 250 µg/mL
[2]
  IC50: 223 µg/mL
[3]
  IC50: > 100 µg/mL
HT29 (colon tumor cells)
  IC50: > 300 µg/mL
[4]
  IC50: 300 µg/mL
[5]; NM-3 25 mg/kg/day i.p. added to radiotherapy, 17 days
  Further tumor growth: markedly reduced
[5]; NM-3 alone
  Tumor growth: did not inhibit tumor growth at all
[5]; combined with X-ray treatment
  Radiation sensitization of tumors: dramatically enhances the sensitivity
[6]; NM-3 alone, 50-200 μg/ml
  Population of cells positive for annexin V and PI (apoptotic cells): did not change the population of cells positive for annexin V and PI
[6]; pretreatment with NM-3, DEX 1 μM, 24 hours
  DEX-induced increase of apoptotic cells: further enhanced
B16-BL6 melanoma cells; 0.08 mg/kg p.o.
  Inhibition (%): −5.3%
  Number of lung metastases (Mean ± S.D.): 88.7 ± 16.1
B16-BL6 melanoma cells; 0.31 mg/kg p.o.
  Inhibition (%): 24.0%
  Number of lung metastases (Mean ± S.D.): 64.0 ± 23.8
B16-BL6 melanoma cells; 1.25 mg/kg p.o.
  Inhibition (%): 13.8%
  Number of lung metastases (Mean ± S.D.): 72.6 ± 20.6
B16-BL6 melanoma cells; 5.0 mg/kg p.o.
  Inhibition (%): 18.8%
  Number of lung metastases (Mean ± S.D.): 68.4 ± 16.9
B16-BL6 melanoma cells; 0.08 to 5 mg/kg p.o.
  Number of pleural metastatic foci versus control: reduction in the number of pleural metastatic foci
